Patent US6406881B2 (priority 1999, dated 2002)

Tests used:
Escherichia coli = assay: Mutant prevention concentration (MPC) against Escherichia coli; assay type: cell-based; conditions: for WI (MPC/MIC): window index
Staphylococcus aureus = assay: Mutant prevention concentration (MPC) against Staphylococcus aureus; assay type: cell-based; conditions: for WI (MPC/MIC): window index

Compound: O=C(N[C@H](CO)[C@H](O)c1ccc([N+](=O)[O-])cc1)C(Cl)Cl [Chloramphenicol]
- MPC (MPC10^10) (Escherichia coli): 12 μg/ml
- WI (MPC/MIC) (Escherichia coli): 6.3
- MPC (MPC10^10) (Staphylococcus aureus): 40 μg/ml
- WI (MPC/MIC) (Staphylococcus aureus): 21
- WI (MPC/MIC) (Staphylococcus aureus; listed as chloramphenicol): about 21

Compound: CCn1cc(C(=O)O)c(=O)c2cc(F)c(N3CCNCC3)cc21 [Norfloxacin]
- MPC (MPC10^10) (Escherichia coli): 1.5 μg/ml
- WI (MPC/MIC) (Escherichia coli): 33
- MPC (MPC10^10) (Staphylococcus aureus): 22 μg/ml
- WI (MPC/MIC) (Staphylococcus aureus): 26

Compound: CO[C@H]1/C=C/O[C@@]2(C)Oc3c(C)c(O)c4c(O)c(c(/C=N/N5CCN(C)CC5)c(O)c4c3C2=O)NC(=O)/C(C)=C\C=C\[C@H](C)[C@H](O)[C@@H](C)[C@@H](O)[C@@H](C)[C@H](OC(C)=O)[C@@H]1C [Rifampicin]
- MPC (MPC10^10) (Escherichia coli): >4,000 μg/ml
- WI (MPC/MIC) (Escherichia coli): >800
- MPC (MPC10^10) (Staphylococcus aureus): 480 μg/ml
- WI (MPC/MIC) (Staphylococcus aureus): 120,000
- WI (MPC/MIC) (Staphylococcus aureus; listed as rifampicin): greater than 120,000

Compound: NC[C@H]1O[C@H](O[C@H]2[C@H](O)[C@@H](O[C@H]3O[C@H](CO)[C@@H](O)[C@H](N)[C@H]3O)[C@H](N)C[C@@H]2N)[C@H](N)C[C@@H]1O [Tobramycin]
- MPC (MPC10^10) (Escherichia coli): 25 μg/ml
- WI (MPC/MIC) (Escherichia coli): 21
- MPC (MPC10^10) (Staphylococcus aureus): 20 μg/ml
- WI (MPC/MIC) (Staphylococcus aureus): 74

Compound: CN[C@H](CC(C)C)C(=O)N[C@H]1C(=O)N[C@@H](CC(N)=O)C(=O)N[C@H]2C(=O)N[C@H]3C(=O)N[C@H](C(=O)N[C@H](C(=O)O)c4cc(O)cc(O)c4-c4cc3ccc4O)[C@H](O)c3ccc(c(Cl)c3)Oc3cc2cc(c3O[C@@H]2O[C@H](CO)[C@@H](O)[C@H](O)[C@H]2O[C@H]2C[C@](C)(N)[C@H](O)[C@H](C)O2)Oc2ccc(cc2Cl)[C@H]1O [Vancomycin]
- MPC (MPC10^10) (Staphylococcus aureus): 40 μg/ml
- WI (MPC/MIC) (Staphylococcus aureus): 61

Compound: Penicillin
- MPC (MPC10^10) (Escherichia coli): 300 μg/ml
- WI (MPC/MIC) (Escherichia coli): 100
- MPC (MPC10^10) (Staphylococcus aureus): 1 μg/ml
- WI (MPC/MIC) (Staphylococcus aureus): 42
